Here are results for 1 compound from ChEMBL document CHEMBL5729068, “Inhibitors of KRAS G12C and methods of using the same” (2022).

pIC50: −log10 of the molar value.

The target of this experiment is GTPase KRas (Homo sapiens, UniProt P01116, C118A/G12C). The experiment can be described thus: Biochemical Assay: The following assay conditions were employed: Coupled Nucleotide Exchange Assay: Purified GDP-bound KRAS protein (aa 1-169), containing both G12C and C118A amino acid substitutions and an N-terminal His-tag, was pre-incubated with a compound dose-response titration for 5 min in assay buffer (25 mM HEPES pH 7.4, 10 mM MgCl2, and 0.01% Triton X-100). Following compound pre-incubation, purified SOS protein (aa 564-1049) and GTP (Roche 10106399001) were added to the assay wells and incubated for an additional 30 min. To determine the extent of inhibition of SOS-mediated nucleotide exchange, purified GST-tagged cRAF (aa 1-149), nickel chelate AlphaLISA acceptor beads (PerkinElmer AL108R), and AlphaScreen glutathione donor beads (PerkinElmer 6765302) were added to the assay wells and incubated for 5 minutes. The assay plates were then read on a PerkinElmer EnVision Multilabel Reader, using AlphaScreen® technology, and data were analyzed using a 4-parameter logistic model to calculate IC50 values.
GTPase KRas, sequence (P01116 whole entry G12C/C118A, the tested form may be a part): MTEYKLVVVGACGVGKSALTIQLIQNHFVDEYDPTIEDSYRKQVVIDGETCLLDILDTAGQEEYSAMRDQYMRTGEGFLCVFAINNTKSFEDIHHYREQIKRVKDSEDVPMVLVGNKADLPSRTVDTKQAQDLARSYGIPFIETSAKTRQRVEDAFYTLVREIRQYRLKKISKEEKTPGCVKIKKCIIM

Take `C=CC(=O)N1[C@H](C)CN(c2nc(=O)n(-c3c(C)ccnc3C(C)C)c3nc(-c4c(N)cccc4F)c(Cl)cc23)C[C@@H]1C` (atropisomer, axis not shown): the negative logarithm of the IC50 (pIC50) (as a rule, the negative decadic logarithm of the IC50, by convention in mol/L) was 7.85.
